Source: PMC5740061 (Nature Communications, 2017)
Entries after “also recorded” stand apart in the source; their conditions may differ. Read-outs that look alike come from different tables or passages of the source. Bridge positions count the residues as written; N and C are the ends. Ends that are not written are not given here.

How the values were obtained:
[1] = Reduction resistance of soluble optides (DTT or glutathione, RP-HPLC, LC/MS); type: physicochemical; conditions: for reduction with 10 mM DTT: soluble optide, SDS-PAGE, mass spectrometry
TEAD [2] = target: T1, TEAD (Homo sapiens, UniProt P28347); experiment: Surface display TEAD binding by flow cytometry (SDGF, 293F cells); conditions: tetravalent staining, SDGF-TB1G1 cells
T1 construct: GST; made in house; host or cells: Hi5 insect cells (baculovirus, pIEX-BAC3 vector)
T1 sequence (P28347 209-426): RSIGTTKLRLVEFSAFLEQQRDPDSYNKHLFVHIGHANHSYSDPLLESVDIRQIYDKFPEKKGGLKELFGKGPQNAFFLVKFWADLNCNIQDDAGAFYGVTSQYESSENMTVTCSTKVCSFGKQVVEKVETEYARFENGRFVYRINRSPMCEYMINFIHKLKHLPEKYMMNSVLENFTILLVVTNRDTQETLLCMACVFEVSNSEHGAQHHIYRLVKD

YAP:TEAD [3] = target: T2, YAP:TEAD (Homo sapiens, UniProt P28347); type: biochemical; design: plasmid # 66853; host or cells: 293T cells, RIPA lysates
Target sequence in this assay (P28347 whole entry): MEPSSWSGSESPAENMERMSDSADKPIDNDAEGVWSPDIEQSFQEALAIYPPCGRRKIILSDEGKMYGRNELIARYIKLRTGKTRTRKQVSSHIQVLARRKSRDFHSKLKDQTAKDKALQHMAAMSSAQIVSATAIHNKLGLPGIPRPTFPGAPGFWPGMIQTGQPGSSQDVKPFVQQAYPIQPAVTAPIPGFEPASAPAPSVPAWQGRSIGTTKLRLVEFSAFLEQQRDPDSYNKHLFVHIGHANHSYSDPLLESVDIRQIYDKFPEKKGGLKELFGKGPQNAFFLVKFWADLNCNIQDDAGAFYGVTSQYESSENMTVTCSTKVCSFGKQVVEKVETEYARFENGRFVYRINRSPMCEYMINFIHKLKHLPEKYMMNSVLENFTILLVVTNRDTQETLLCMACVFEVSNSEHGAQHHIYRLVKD
YAP:TEAD [4] = target: T2, YAP:TEAD; type: binding; design: GST; made in house; host or cells: TEAD from Hi5 insect cells; conditions: 293F cells expressing SDGF-YAP, 5 nM TEAD, 0-100 nM optide
Target sequence in this assay (P28347 209-426): as the sequence (P28347 209-426) above

trypsin [5] = target: T3, trypsin (Sus scrofa, UniProt P00761)
T3 sequence (P00761 9-231): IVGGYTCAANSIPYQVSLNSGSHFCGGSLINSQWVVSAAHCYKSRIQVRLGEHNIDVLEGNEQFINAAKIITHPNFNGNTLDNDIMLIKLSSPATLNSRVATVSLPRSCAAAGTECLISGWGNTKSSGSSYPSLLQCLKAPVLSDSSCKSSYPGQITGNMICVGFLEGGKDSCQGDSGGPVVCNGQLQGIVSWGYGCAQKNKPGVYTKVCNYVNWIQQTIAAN
YAP:TEAD [6] = target: T2, YAP:TEAD; type: cell-based; design: endogenous in cells; host or cells: HeLa cells; conditions: HeLa cells, 5 µM optide with 5 µM dfTAT, 90 min; versus dfTAT alone, P < 0.0001
Target sequence in this assay (P28347 whole entry): as the sequence (P28347 whole entry) above

[7] = Circular dichroism thermostability; type: physicochemical; conditions: 25-30 µM in 10 mM phosphate buffer pH 7.4, heated 20 to 95 °C at 2 °C per min, 220 nm
Experimental: Protein secondary structures were assessed using circular dichrosim (CD). CD spectra were measured with a Jasco J-720W spectropolarimeter using a 1.0 mm path length cell. Protein samples (25-30 µM) in 10 mM phosphate buffer (pH 7.4) were analyzed at a wavelength range of 190 to 260 nm. […] Data are expressed in terms of relative ellipticity [θ], reported in mdeg.

trypsin [8] = target: T3, trypsin; experiment: Protease stability in surface display (SDPR), trypsin; type: in vitro ADME; design: purchased Promega V5111; conditions: 40 µg mL^-1 trypsin, SDPR-TB1G2 on 293F cells, then 5 mM DTT and iFluor 647 anti-6xHis staining
chymotrypsin = target: T4, chymotrypsin (Bos taurus, UniProt P00766); experiment: Protease stability in surface display (SDPR), chymotrypsin; type: in vitro ADME; conditions: 40 µg mL^-1 chymotrypsin, SDPR-TB1G2 on 293F cells, then 5 mM DTT and iFluor 647 anti-6xHis staining
T4 construct: purchased Promega V1062

[9] = type: physicochemical; conditions: SYPRO Orange, 0.1 mg/mL in PBS, 20 to 95 °C
HeLa cells = experiment: Cell penetration of DyLight 488 labelled optide in HeLa cells; type: cell-based; conditions: 5 µM optide without dfTAT
TEAD [10] = target: T1, TEAD; experiment: Reduction resistance of surface displayed optides (GSH or DTT, then TEAD binding); type: physicochemical; conditions: 10 mM glutathione for 5 mins, then TEAD binding (20 nM, 2-step stain)

CC[C@H](C)[C@@H]1NC(=O)[C@H](CC(=O)O)NC(=O)CNC(=O)[C@H](CCCCN)NC(=O)[C@H](CCCCN)NC(=O)[C@@H]2CSSC[C@@H](C(=O)N3CCC[C@H]3C(=O)O)NC(=O)[C@H](Cc3ccccc3)NC(=O)[C@H](CC(C)C)NC(=O)[C@@H]3CSSC[C@H](NC(=O)[C@H](CSSC[C@H](NC(=O)[C@H](CCC(=O)O)NC(=O)[C@H](CCCCN)NC(=O)[C@H](C)NC(=O)[C@H](CCCNC(=N)N)NC(=O)[C@H](CCC(=O)O)NC(=O)[C@@H](NC(=O)[C@H](Cc4ccc(O)cc4)NC(=O)[C@H](CCC(=O)O)NC(=O)[C@H](CC(=O)O)NC(=O)[C@@H]4CCCN4C(=O)[C@H](CO)NC(=O)CN)[C@@H](C)CC)C(=O)N2)NC(=O)[C@H](CCC(N)=O)NC1=O)C(=O)N[C@@H](CC(C)C)C(=O)N[C@@H](CCCNC(=N)N)C(=O)N[C@@H](Cc1ccc(O)cc1)C(=O)N[C@@H](Cc1ccccc1)C(=O)N[C@@H](CCC(=O)O)C(=O)N[C@@H](CCC(=O)O)C(=O)N[C@@H](CO)C(=O)NCC(=O)N[C@@H](CC(=O)O)C(=O)N1CCC[C@H]1C(=O)N[C@@H](CC(N)=O)C(=O)N[C@@H](C(C)C)C(=O)N[C@@H](CCSC)C(=O)N[C@@H](CC(C)C)C(=O)N[C@@H]([C@@H](C)CC)C(=O)N3 [TB1G1]
reduction with 10 mM DTT [1]: complete
TEAD concentration at which binding was still detectible (TEAD [2]): 64 pM
TEAD concentration of peak signal:noise (TEAD [2]): 8 nM
inhibition of FLAG-YAP co-immunoprecipitation with Myc-TEAD (YAP:TEAD [3]; 293T cell lysate, 30 min at 4 °C): dose-dependent inhibition
inhibition of YAP:TEAD-dependent cell staining (YAP:TEAD [4]): inhibited YAP:TEAD-dependent cell staining

Turripeptide IX-01 [Peptide 8]
Trypsin Resistance (trypsin [5]): 96%

GSAPPCKRDVDCSFECPKGGFCNDRLGTCDCF (also: bicyclic or more (positions not given here)) [Peptide 1, Putative defensin-like protein 257]
Trypsin Resistance (trypsin [5]): 90%

GSRGQCWSYSNCRAVCRDEGYVSGHCNYFGGACWCAS (also: bicyclic or more (positions not given here)) [Peptide 13, Putative uncharacterized protein]
Trypsin Resistance (trypsin [5]): 52%

Beta/delta-agatoxin-6 [Peptide 3]
Trypsin Resistance (trypsin [5]): 102%

H-GSPDEYIERAKECCKKGDIQCCLRYFEESGDPNVMLICLACP-OH (disulfide 13-21, 14-41, 22-38) [TB1G1-F38A]
inhibition of FLAG-YAP co-immunoprecipitation with Myc-TEAD (YAP:TEAD [3]): not

GSVDGCQETCTKMIRCQFFTYSLFPEDCRGEKCKCSLR (also: bicyclic or more (positions not given here)) [Peptide 16, Plasma kallikrein]
Trypsin Resistance (trypsin [5]): 50%

GSGICACRRRFCLNFEQFSGYCRVNGARYVRCCSRR (also: bicyclic or more (positions not given here)) [Peptide 9, Corticostatin-6]
Trypsin Resistance (trypsin [5]): 65%

Venom defensin-like peptide A [Peptide 2]
Trypsin Resistance (trypsin [5]): 84%

GSPMTCEQAMASCEHTMCGYCQGPLYMTCIGITTDPECGLP (also: bicyclic or more (positions not given here)) [Peptide 6, Mating pheromone Er-2/Er-9]
Trypsin Resistance (trypsin [5]): 97%

GSDLVCYCRKRGCKRREHMNGTCRRGHLMYTLCCR (also: bicyclic or more (positions not given here)) [Peptide 10, Alpha-defensin 13]
Trypsin Resistance (trypsin [5]): 43%

CC[C@H](C)[C@H](NC(=O)[C@H](Cc1ccc(O)cc1)NC(=O)[C@H](CCC(=O)O)NC(=O)[C@H](CC(=O)O)NC(=O)[C@@H]1CCCN1C(=O)[C@H](CO)NC(=O)CN)C(=O)N[C@@H](CCC(=O)O)C(=O)N[C@@H](CCCNC(=N)N)C(=O)N[C@@H](C)C(=O)N[C@@H](CCCCN)C(=O)N[C@@H](CCC(=O)O)C(=O)N[C@H]1CSSC[C@@H]2NC(=O)[C@H](CCC(N)=O)NC(=O)[C@H]([C@@H](C)CC)NC(=O)[C@H](CC(=O)O)NC(=O)[C@H](CCC(N)=O)NC(=O)[C@H](CCCCN)NC(=O)[C@H](CCCCN)NC(=O)[C@H](CSSC[C@@H](C(=O)N[C@@H](Cc3c[nH]c4ccccc34)C(=O)O)NC(=O)[C@H](Cc3ccccc3)NC(=O)[C@H](CC(C)C)NC(=O)[C@@H]3CSSC[C@H](NC2=O)C(=O)N[C@@H](CC(C)C)C(=O)N[C@@H](CCCNC(=N)N)C(=O)N[C@@H]([C@@H](C)CC)C(=O)N[C@@H](Cc2ccccc2)C(=O)N[C@@H](CC(=O)O)C(=O)N[C@@H](CCC(=O)O)C(=O)N[C@@H](CO)C(=O)N[C@@H](CCCCN)C(=O)N[C@@H](CC(=O)O)C(=O)N2CCC[C@H]2C(=O)N[C@@H](CC(N)=O)C(=O)N[C@@H](C(C)C)C(=O)N[C@@H](CCSC)C(=O)N[C@@H](CC(C)C)C(=O)N[C@@H]([C@@H](C)CC)C(=O)N3)NC1=O [TB1G2]
stability under intracellular reducing conditions, soluble ([1]; 10 mM glutathione): no effect on TB1G2 stability
reduction with 10 mM DTT [1]: incomplete reduction
YAP:TEAD PLA speckles per nucleus (YAP:TEAD [6]): reduction in speckles
thermostability by circular dichroism [7]: no evidence of altered TB1G2 structure up to 95 °C; also recorded: identical before (Pre) and after (Post) incubation at 95 °C
protease stability in surface display, trypsin (trypsin [8]): no change in anti-6xHis staining
protease stability in surface display, chymotrypsin (chymotrypsin): no change in anti-6xHis staining
melting temperature [9]: no melting temperature could be determined
cell penetration (HeLa cells): failed to demonstrate cell penetration; also recorded: not yet cell penetrant
stability under intracellular reducing conditions, surface displayed (TEAD [10]): no effect on TB1G2 stability
inhibition of YAP:TEAD-dependent cell staining (YAP:TEAD [4]): much higher potency

U9-theraphotoxin-Cj1a [Peptide 11]
Trypsin Resistance (trypsin [5]): 46%

GSSVPCVSTRGSCKPPAPACCHPCASCQCRFFRSACSCRVLNVNC (also: bicyclic or more (positions not given here)) [Peptide 12, Agouti-signaling protein]
Trypsin Resistance (trypsin [5]): 60%

CC[C@H](C)[C@H](NC(=O)[C@H](Cc1ccc(O)cc1)NC(=O)[C@H](CCC(=O)O)NC(=O)[C@H](CC(=O)O)NC(=O)[C@@H]1CCCN1C(=O)[C@H](CO)NC(=O)CN)C(=O)N[C@@H](CCC(=O)O)C(=O)N[C@@H](CCCNC(=N)N)C(=O)N[C@@H](C)C(=O)N[C@@H](CCCCN)C(=O)N[C@@H](CCC(=O)O)C(=O)N[C@H]1CSSC[C@@H]2NC(=O)[C@H](CCC(N)=O)NC(=O)[C@H]([C@@H](C)CC)NC(=O)[C@H](CC(=O)O)NC(=O)[C@H](CCC(N)=O)NC(=O)[C@H](CCCCN)NC(=O)[C@H](CCCCN)NC(=O)[C@H](CSSC[C@@H](C(=O)N3CCC[C@H]3C(=O)O)NC(=O)[C@H](Cc3ccccc3)NC(=O)[C@H](CC(C)C)NC(=O)[C@@H]3CSSC[C@H](NC2=O)C(=O)N[C@@H](CC(C)C)C(=O)N[C@@H](CCCNC(=N)N)C(=O)N[C@@H]([C@@H](C)CC)C(=O)N[C@@H](Cc2ccccc2)C(=O)N[C@@H](CC(=O)O)C(=O)N[C@@H](CCC(=O)O)C(=O)N[C@@H](CO)C(=O)N[C@@H](CCCCN)C(=O)N[C@@H](CC(=O)O)C(=O)N2CCC[C@H]2C(=O)N[C@@H](CC(N)=O)C(=O)N[C@@H](C(C)C)C(=O)N[C@@H](CCSC)C(=O)N[C@@H](CC(C)C)C(=O)N[C@@H]([C@@H](C)CC)C(=O)N3)NC1=O [TB1G2-W40P]
thermostability by circular dichroism [7]: identical before (Pre) and after (Post) incubation at 95 °C
melting temperature [9]: no melting temperature could be determined

GSKEICERPNGSCRDFCLETEIHVGRCLNSQPCCLPL (also: bicyclic or more (positions not given here)) [Peptide 4, Beta-defensin 108B]
Trypsin Resistance (trypsin [5]): 95%

GSKDYCPGICNVAAVPDCDTLCISLGYSGGYCRAGRICCCNPK (also: bicyclic or more (positions not given here)) [Peptide 7, Uncharacterized protein]
Trypsin Resistance (trypsin [5]): 96%

GSYTDCTESGQNLCLCEGSNVCGKGNKCILGSQGKDNQCVTG (also: bicyclic or more (positions not given here)) [Peptide 5, Hirudin-PA]
Trypsin Resistance (trypsin [5]): 75%
